Laboratory results from PubChem BioAssay AID1361 (SRMLSC, 2008).
The source made the active and inactive calls. The rule behind the calls is not given here.

Assay: blockers of mitochondrial fusion, WT vs mutant – cell-based, chemical genetic, wild-type and mutant, confirmation (AID 1361)
Conditions: Cell-based mitochondrial fusion phenotype, imaging
[1] = mutant cells, measured here: mutant cell line IC50

SMILES	IC50 (WT cells)	IC50 [1]
CC1CCN(S(=O)(=O)c2ccc(Oc3ccc([N+](=O)[O-])cc3)cc2)CC1	> 25 µM (inactive)	> 25 µM
CCOc1ccc2c(c1)C(C)=CC(C)(C)N2S(=O)(=O)c1ccc(C)cc1	13.7 µM	23.2 µM
CC1CCc2c(sc(NC(=O)COC(=O)c3ccc(O)cc3)c2C#N)C1 (centres undefined)	> 25 µM (inactive)	> 25 µM
CCOc1ccc(C(C(=O)NC2CCCC2)N(Cc2ccccc2)C(=O)c2nsc(Cl)c2Cl)cc1 (centres undefined)	12 µM	> 25 µM
O=C(CNC(=S)N(Cc1ccccc1)Cc1ccccc1F)NCCc1ccccc1	20.1 µM	> 25 µM
Cc1ccc(C)c(NC(=O)c2cc(-c3ccccc3)nn2-c2ccccc2)c1	4.99 µM	> 25 µM
OC1(c2cccc(C(F)(F)F)c2)CCN(c2ncnc3c2[nH]c2ccccc23)CC1	18 µM	> 25 µM
COc1ccc(-c2nc3ccccc3s2)cc1O	> 25 µM (inactive)	> 25 µM
NS(=O)(=O)c1ccc(N2N=C(c3ccccc3)CC2c2ccc(F)cc2)cc1 (centres undefined)	12 µM	> 25 µM
Cc1ccc(-n2cc(-c3ccccc3)c3c(N4CCOCC4)ncnc32)cc1	21 µM	> 25 µM
CCc1ccc(-c2nn(-c3ccccc3)cc2CSC(=N)N)cc1	> 25 µM (inactive)	> 25 µM
N#Cc1c(NC(=S)NC(=O)C2CCCC2)sc2c1CCCCC2	10.5 µM	> 25 µM
CCC1Oc2ccc(C)cc2N(CC(=O)NCCCN2CCCCC2CC)C1=O (centres undefined)	> 25 µM (inactive)	> 25 µM
O=C1Nc2ccc(Cl)cc2C12Nc1ccccc1-c1nnc(SCc3ccccc3F)nc1O2 (centres undefined)	> 25 µM (inactive)	> 25 µM
O=C(NC(=S)Nc1ccccc1N1CCCCC1)c1ccco1	> 25 µM (inactive)	23 µM
CCc1c(C)nc2[nH]nc(-c3ccccc3)n2c1=O	> 25 µM (inactive)	> 25 µM
Cc1cccc(OCCCC(=O)Nc2ccc3c(c2)OCO3)c1	> 25 µM (inactive)	> 25 µM
Cc1cccc(NC(=S)N/N=C/c2ccc3c(c2)OCO3)c1	> 25 µM (inactive)	> 25 µM
O=C(c1ccccc1)c1cc(Cl)ccc1N1C(=O)C=CC1=O	> 25 µM (inactive)	> 25 µM
COC(=O)c1cn(C(=O)OC)c2ccccc12	> 25 µM (inactive)	> 25 µM
CC(C)CNS(=O)(=O)c1ccc(S(=O)(=O)N2CCCN(Cc3ccccc3)C2)cc1	> 25 µM (inactive)	> 25 µM

SMILES	IC50 (WT cells)	IC50 [1]
O=C(CC(Nc1ccc(F)cc1)c1ccccc1)c1ccccc1 (centres undefined)	16.5 µM	> 25 µM
Cn1c(=O)c2c(nc(N3CCCCCC3)n2Cc2cccc3ccccc23)n(C)c1=O	10 µM	> 25 µM
Cc1cccc(NC(=S)N=Nc2c(O)[nH]c3ccccc23)c1	> 25 µM (inactive)	> 25 µM
CS(=O)(=O)N1CCc2cc(C(=O)N3CCOCC3)ccc21	> 25 µM (inactive)	> 25 µM
CCS(=O)(=O)Nc1ccc(-c2cc(-c3ccccc3)c3cc(C)ccc3n2)cc1	7.26 µM	> 25 µM
COc1ccc(C2C(C#N)=C(SC)NC3=C2C(=O)CC(C)(C)C3)cc1 (centres undefined)	> 25 µM (inactive)	> 25 µM
Cc1ccccc1OCC(=O)Nc1ccccc1N1CCC(C)CC1	16.1 µM	> 25 µM
CC(C)(C)[C@H]1C=C(C(=O)N2CCN(Cc3ccc4c(c3)OCO4)CC2)O[C@@H](OCc2ccc(CO)cc2)C1	10 µM	> 25 µM
CCOC1(OCC)C(c2ccc(Cl)cc2)C(C#N)(C#N)C1(OCC)OCC (centres undefined)	11.5 µM	> 25 µM
O=c1c2ccccc2[nH]c(=S)n1-c1ccc2c(c1)OCO2	> 25 µM (inactive)	> 25 µM
O=C(NC(=S)Nc1ccc(S(=O)(=O)NC2CCCCC2)cc1)c1cccs1	17.6 µM	> 25 µM
Cc1ccc2nc(SC(C(=O)Nc3ccc(F)cc3)c3ccccc3)[nH]c2c1 (centres undefined)	> 25 µM (inactive)	> 25 µM
CCOc1ccccc1NC(=O)C(OC(=O)c1ccc(O)cc1)c1ccccc1 (centres undefined)	9.83 µM	> 25 µM
Cc1ccccc1CN(C)CC(=O)Nc1ccccc1-c1ccccc1	16.3 µM	> 25 µM
CCCCCC(=O)O[C@]1(C(C)=O)CC[C@H]2[C@@H]3CCC4=CC(=O)CC[C@]4(C)[C@H]3CC[C@@]21C	12.7 µM	> 25 µM
CC(C)C1OC(c2cccc(NC(=O)c3cccs3)c2)OCC1(C)C (centres undefined)	> 25 µM (inactive)	> 25 µM
Cc1ccc(OCCSc2nc(NC(C)C)nc(NC(C)C)n2)cc1	12.3 µM	> 25 µM
CN(C)c1ccc(O)c2c1CC1CC3[C@@H](N(C)C)C(=O)C(C(N)=O)=C(O)[C@]3(O)C(=O)C1=C2O (some centres undefined)	> 25 µM (inactive)	> 25 µM
Cc1nc2ccc(NC(=O)c3nn(CC(C)C)c(=O)c4ccccc34)cc2s1	> 25 µM (inactive)	> 25 µM
CC1CCCN(c2nc(-c3cccnc3)nc3scc(-c4ccccc4)c23)C1 (centres undefined)	11.8 µM	> 25 µM
Cc1ccc(C(C)C)c(OCc2ccc(C(=O)N/N=C/c3ccc(O)cc3O)cc2)c1	> 25 µM (inactive)	> 25 µM

SMILES	IC50 (WT cells)	IC50 [1]
C=CCN1C(=O)C(CC(=O)Nc2ccc(OCCC)cc2)N(CCCN2CCN(Cc3ccccc3)CC2)C1=S (centres undefined)	> 25 µM (inactive)	> 25 µM
O=C(CSCC(=O)OCn1nnc2ccccc2c1=O)Nc1ccc(Cl)cc1	> 25 µM (inactive)	> 25 µM
Cc1ccccc1N1CCN(c2ncnc3scc(-c4cccs4)c23)CC1	9.75 µM	> 12.5 µM
O=c1oc(Nc2cccc(F)c2)nc2ccccc12	> 25 µM (inactive)	> 25 µM
COc1ccccc1-c1cc(C(F)(F)F)nc(NCc2cccs2)n1	11.2 µM	> 25 µM
Clc1ccc(CSc2nnc(-c3ccncc3)o2)c(Cl)c1	> 25 µM (inactive)	> 25 µM
Cc1ccc(C(C(=O)NC2CCCCC2)N(Cc2ccco2)C(=O)Cc2c[nH]c3ccccc23)o1 (centres undefined)	21.2 µM	> 25 µM
CCOC(=O)N1CCN(CC(O)COC2CC(C)CCC2C(C)C)CC1 (centres undefined)	> 25 µM (inactive)	> 25 µM
CCn1ccnc1CN1CCc2c([nH]c3ccccc23)C1C1CCCCC1 (centres undefined)	17.6 µM	> 25 µM
CC1CCN(C(=O)/C=C/c2ccc(C(C)(C)C)cc2)CC1	> 25 µM (inactive)	> 25 µM
Cc1ccc2nc(-c3ccccc3)c(CN3CCN(c4ccccc4F)CC3)n2c1	15.6 µM	> 25 µM
CCOc1ccc(C(=O)C(CCC(CN(C)C)C(=O)c2ccc(OCC)cc2)CN(C)C)cc1 (centres undefined)	20.4 µM	> 25 µM
CCc1cc(-c2n[nH]c(=S)n2CC(C)C)cs1	> 25 µM (inactive)	> 25 µM
Cc1ccc(C)c(N2CCN(C(=O)Cc3cn(C)c4ccccc34)CC2)c1	21.9 µM	> 25 µM
O=S(Cc1ccc(Br)cc1)Cc1nnc(SCc2ccc(Br)cc2)n1-c1ccccc1 (centres undefined)	13.7 µM	> 25 µM
Cc1coc(C)c1C(=O)CC1(O)C(=O)Nc2cc(Cl)cc(Cl)c21 (centres undefined)	> 25 µM (inactive)	> 25 µM
Cc1nc(C)c(-c2csc(Nc3cccc(O)c3)n2)s1	> 25 µM (inactive)	> 25 µM
CCN(Cc1cc2cc(C)ccc2[nH]c1=O)C(=O)c1cccc(OC)c1	> 25 µM (inactive)	> 25 µM
COc1ccc(NC(=S)Nc2ccc(OCc3ccccc3)cc2)c(OC)c1	17.4 µM	24.9 µM
Cc1cc(C)nc(NC2=NCC(=O)N2c2ccc3c(c2)OCCO3)n1	> 25 µM (inactive)	> 25 µM
CC(=O)Cc1nsc(NC(=O)c2ccc(-c3cc(Cl)ccc3Cl)o2)n1	> 25 µM (inactive)	> 25 µM

SMILES	IC50 (WT cells)	IC50 [1]
CCCCC(=O)O[C@H]1CC[C@H]2[C@@H]3CCc4cc(O)ccc4[C@H]3CC[C@]12C	12.3 µM	> 25 µM
CCOC(=O)C1CCc2nc3ccccc3c(=O)n21 (centres undefined)	> 25 µM (inactive)	> 25 µM
O=C(COC(=O)CC(c1ccccc1)c1ccccc1)NCc1ccc(Cl)cc1	14.7 µM	> 25 µM
Cc1nc2c(ccc3nc(NC(=O)Cc4ccccc4)sc32)s1	12.4 µM	> 25 µM
Cc1oc(-c2ccccc2)[n+]([O-])c1C	> 25 µM (inactive)	> 25 µM
O=C(OC(C(=O)Nc1cccc(C(F)(F)F)c1)c1ccccc1)C1CCCCC1 (centres undefined)	9.59 µM	> 25 µM
O=C(Nc1nnc(C2CC2)o1)c1ccc(S(=O)(=O)N2CCCc3ccccc32)cc1	13.5 µM	20.8 µM
COc1ccc(CCN(Cc2cc3cc(C)cc(C)c3nc2Cl)C(=O)C2CC2)cc1	7.6 µM	> 25 µM
COCCN(C(=S)Nc1ccc(C(C)C)cc1)C(C)c1cccs1 (centres undefined)	> 25 µM (inactive)	> 25 µM
Cc1ccc(-c2nc3cc(Br)cnc3nc2-c2ccc(C)cc2)cc1	9.24 µM	> 25 µM
CCOC(=O)CC(=O)CSc1nc(C)nc2c1oc1ccccc12	> 25 µM (inactive)	> 25 µM
CCOC(=O)C1=C(C)NC(SC(C)=O)=NC1c1ccc(OC(C)=O)c(OC)c1 (centres undefined)	> 25 µM (inactive)	> 25 µM
Cn1c(CCN2CCN(c3ccccc3)CC2)nc2cc(NC(=O)c3ccco3)ccc21	> 25 µM (inactive)	> 25 µM
O=C(COC(=O)Cc1c(Cl)cccc1Cl)Nc1ccccc1-c1ccccc1	13.3 µM	> 25 µM
COc1ccc(NC(=O)CSc2ccc3c(c2)OCCO3)cc1OC	> 25 µM (inactive)	> 25 µM
Cc1cccc(NC(=S)NNC(=O)COc2ccc(Cl)cc2Cl)c1	10.9 µM	21 µM
O=C(CNCc1ccccc1Cl)Nc1ccccc1N1CCCCC1	13.2 µM	> 25 µM
CN(C)c1ccc(S(=O)(=O)c2ccc(Cl)cc2)cc1	> 25 µM (inactive)	> 25 µM
O=C(NCC(c1cccnc1)N1CCOCC1)c1ccco1 (centres undefined)	> 25 µM (inactive)	> 25 µM
